Assay results from BindingDB's records for PubMed 7751958 (Cnrs Ccipe, 1995).
Values joined by “and” are separate entries in the source; they are usually repeats but may differ in a detail not shown here. Equal values may be shown once.

Assays:
[1] = target: Glutamate metabotropic receptor 1 (Sus scrofa, UniProt F1S737)
[2] = target: Glutamate metabotropic receptor 5 (Cavia porcellus, UniProt H0VDS0)
Glutamate metabotropic receptor 5, sequence (H0VDS0 whole entry): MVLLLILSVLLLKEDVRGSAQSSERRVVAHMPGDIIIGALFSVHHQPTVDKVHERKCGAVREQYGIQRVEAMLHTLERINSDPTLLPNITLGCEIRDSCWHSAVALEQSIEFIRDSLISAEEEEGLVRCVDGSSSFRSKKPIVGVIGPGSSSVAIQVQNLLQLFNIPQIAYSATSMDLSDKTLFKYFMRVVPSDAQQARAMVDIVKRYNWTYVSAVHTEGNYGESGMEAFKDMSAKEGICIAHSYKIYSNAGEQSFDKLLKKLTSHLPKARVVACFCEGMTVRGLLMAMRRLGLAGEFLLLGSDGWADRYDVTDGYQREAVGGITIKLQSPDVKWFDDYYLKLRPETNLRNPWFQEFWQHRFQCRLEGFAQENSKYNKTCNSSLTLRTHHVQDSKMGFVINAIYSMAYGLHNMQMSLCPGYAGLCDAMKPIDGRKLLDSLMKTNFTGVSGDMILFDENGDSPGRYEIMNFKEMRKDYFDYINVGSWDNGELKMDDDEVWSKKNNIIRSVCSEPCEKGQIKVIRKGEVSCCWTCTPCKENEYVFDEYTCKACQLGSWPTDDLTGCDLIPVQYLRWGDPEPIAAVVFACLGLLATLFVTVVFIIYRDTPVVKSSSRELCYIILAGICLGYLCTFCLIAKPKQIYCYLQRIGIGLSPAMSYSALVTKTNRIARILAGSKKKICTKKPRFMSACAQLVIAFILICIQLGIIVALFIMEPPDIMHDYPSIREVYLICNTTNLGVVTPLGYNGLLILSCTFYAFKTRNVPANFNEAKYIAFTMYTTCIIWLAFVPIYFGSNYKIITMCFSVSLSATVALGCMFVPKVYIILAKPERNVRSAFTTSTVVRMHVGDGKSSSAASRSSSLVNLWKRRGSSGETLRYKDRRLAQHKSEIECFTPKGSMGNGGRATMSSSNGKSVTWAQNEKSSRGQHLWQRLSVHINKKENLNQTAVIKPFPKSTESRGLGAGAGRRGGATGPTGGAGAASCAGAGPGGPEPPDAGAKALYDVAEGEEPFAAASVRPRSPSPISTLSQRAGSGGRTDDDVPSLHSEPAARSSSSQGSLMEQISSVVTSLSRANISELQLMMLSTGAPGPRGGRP

Glutamate metabotropic receptor 1, sequence (F1S737 whole entry): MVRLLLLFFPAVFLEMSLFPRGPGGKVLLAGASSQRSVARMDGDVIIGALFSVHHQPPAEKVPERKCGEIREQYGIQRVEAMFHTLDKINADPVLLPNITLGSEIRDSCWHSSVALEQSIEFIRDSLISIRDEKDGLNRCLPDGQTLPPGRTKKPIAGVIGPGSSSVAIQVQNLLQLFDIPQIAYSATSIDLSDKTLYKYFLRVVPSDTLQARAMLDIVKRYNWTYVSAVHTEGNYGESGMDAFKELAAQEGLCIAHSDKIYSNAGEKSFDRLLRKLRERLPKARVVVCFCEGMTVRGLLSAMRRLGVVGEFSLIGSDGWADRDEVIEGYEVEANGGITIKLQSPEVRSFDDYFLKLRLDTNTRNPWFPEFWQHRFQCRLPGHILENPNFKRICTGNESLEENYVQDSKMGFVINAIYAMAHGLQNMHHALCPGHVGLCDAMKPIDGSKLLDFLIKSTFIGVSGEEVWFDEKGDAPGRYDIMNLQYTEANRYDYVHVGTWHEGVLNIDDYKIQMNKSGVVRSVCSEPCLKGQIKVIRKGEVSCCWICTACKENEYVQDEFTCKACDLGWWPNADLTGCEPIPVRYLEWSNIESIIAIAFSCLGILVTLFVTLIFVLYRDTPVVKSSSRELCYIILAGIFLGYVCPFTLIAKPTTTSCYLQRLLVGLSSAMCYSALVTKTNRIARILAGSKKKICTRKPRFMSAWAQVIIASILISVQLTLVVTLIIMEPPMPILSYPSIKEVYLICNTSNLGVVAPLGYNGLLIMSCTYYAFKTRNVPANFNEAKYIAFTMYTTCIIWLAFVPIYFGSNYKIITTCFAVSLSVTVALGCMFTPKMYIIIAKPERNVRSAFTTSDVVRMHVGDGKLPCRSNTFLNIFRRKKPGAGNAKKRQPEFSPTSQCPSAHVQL

SMILES | Ki [1] | Ki [2]
N[C@@H](CCC(=O)O)C(=O)O [L-Glutamic acid] | > 10 µM | 9.75 µM and 7.67 µM
N[C@]1(C(=O)O)CC[C@@H](C(=O)O)C1 | > 10 µM | > 10 µM
N[C@@]1(C(=O)O)CC[C@H](C(=O)O)C1 [1S, 3R-ACPD] | > 10 µM and 9.3 µM | > 10 µM and 6.7 µM and 5.3 µM
N[C@@H](Cn1oc(=O)[nH]c1=O)C(=O)O [2-amino-3-(3,5-dioxo[1,2,4]oxadiazolidin-2-yl)propionic acid] | 0.26 µM | 0.022 µM and 0.047 µM
NC(C(=O)O)c1cc(=O)[nH]o1 (stereo not given) [Amino-(3-hydroxy-isoxazol-5-yl)-acetic acid(Ibotenic acid)] | > 10 µM | 2.87 µM and 1.93 µM
